Test results published in US8980951B2, “Sesquiterpenes for antifungal applications” (Kansas State University Research Foundation, priority 2011, dated 2015).
≈ marks a conversion by molar mass, not a printed value.

Key:
C. albicans = experiment: Caenorhabditis elegans host model of Candidiasis; type: in vivo; conditions: 50 μg/ml; RPMI medium; scored after 4-5 days
Experimental: (§1) In order to determine antifungal efficacy and toxicity of albicanol and drimenol simultaneously, Caenorhabditis elegans (worm), a non-mammalian host model of Candidiasis was used. Worms fed with C. albicans yeast cells were incubated in RPMI medium in the presence or absence of drimenol. After 4-5 days worms were scored for survival under an inverted microscope and images were recorded. […] Note dead worms (straight shapes) and clusters of fungal growth in wells without drimenol (−Dri).

[1] = tested on: A. nidulans, C. albicans, C. albicans 95-158 Flu-R, Cryp. neomormans, Candida krusei, and C. glabrata; experiment: Fungicidal test, viability of treated fungal cells spotted on YPD agar; type: cell-based; conditions: for effect of amines or YPD medium on bioactivity: presence of amines or YPD medium
[2] = tested on: Caenorhabditis elegans (worm); experiment: Toxicity to worms in the Candidiasis model; type: in vivo; conditions: at concentrations that inhibit fungal growth
Experimental: as §1

Cryp. neoformans = experiment: CLSI microdilution antifungal susceptibility assay; type: cell-based; conditions: for EC50 / MIC: Cryptococcus neoformans; for EC50: 50% fungal inhibitory concentration; for MIC: lowest concentration with no fungal growth, CLSI
Experimental: (§2) Synthetic pure albicanol and drimenol were dissolved in DMSO (10 mg/ml as stock solution) and used to determine their antifungal activities (minimum inhibitory concentration, MIC) against various fungi according to the microdilution assay of Clinical and Laboratory Standards Institute (CLSI (2008). Reference method for broth dilution antifungal susceptibility testing of yeasts and filamentous fungi: Approved Standard-Third Edition. Clinical and Laboratory Standards Institute 940 West Valley Road, Wayne, Pa. CLSI document M27-A3 & M38-A28. An initial assay had confirmed the antifungal activity of albicanol and drimenol; therefore, the susceptibility assay was extended to other pathogenic fungi including fluconazole resistant C. albicans, various species of candida, Cryptococcus, Aspergillus and a dermatophyte fungus.
(§3) Yeast cells or conidia (for filamentous fungi) were suspended in RPMI 1640 (with 50 mM glucose) medium to a final concentration of 10^4 cfu/ml and distributed in a 96-well microplate to a total volume of 100 μl/well. Albicanol and drimenol were added into the wells and serial dilutions (broad or narrow range) with replicates were made, and wells with or without DMSO served as controls. Plates were incubated without shaking at 37° C. for 24-48 h for yeasts and 30° C. for 4 days for filamentous fungi (Aspergillus and Trichophyton sp). The MIC was defined as the lowest compound concentration at which no growth occurred, as determined visually and by OD600 measurement (or microscopically, inverted). As a positive control, amphotericin B (AMB) (1 μg/ml) was also included in parallel. Cytotoxicity of albicanol and drimenol was determined using human intestinal epithelial cell lines (Int-407) by utilizing cell viability assay kit of Promega.

C. albicans Day 185 = experiment: CLSI microdilution antifungal susceptibility assay; type: cell-based; conditions: for EC50 / MIC: Candida albicans; for EC50: DAY185, 50% fungal inhibitory concentration; for MIC: DAY185, lowest concentration with no fungal growth, CLSI
Experimental: as §2, §3

T. equinum = experiment: CLSI microdilution antifungal susceptibility assay; type: cell-based; conditions: for EC50: 50% fungal inhibitory concentration; for MIC: lowest concentration with no fungal growth, CLSI
Experimental: as §2, §3

C. albicans SC5314 = experiment: CLSI microdilution antifungal susceptibility assay; type: cell-based; conditions: for EC50 / MIC: Candida albicans; for EC50: 50% fungal inhibitory concentration; for MIC: lowest concentration with no fungal growth, CLSI
Experimental: as §2, §3

[3] = tested on: barcoded mutants of Saccharomyces cerevisiae; experiment: Genome-wide fitness (haploinsufficiency) profiling, yeast TAG4 microarray; type: cell-based; conditions: at 20% growth inhibitory concentration; 20 generations
[4] = tested on: fluconazole resistant C. alibcans, Cryptococcus sp. and Aspergillus sp.; experiment: MIC summary for fungi; type: cell-based; conditions: Candida albicans, read-out: minimum inhibitory concentration (MIC)
Experimental: as §2
(§4) Yeast cells or conidia (for filamentous fungi) were suspended in RPMI 1640 (with 50 mM glucose) medium to a final concentration of 10^4 cfu/ml and distributed in a 96-well microplate to a total volume of 100 μl/well. […] The MIC was defined as the lowest compound concentration at which no growth occurred, as determined visually and by OD600 measurement (or microscopically, inverted). […] Cytotoxicity of albicanol and drimenol was determined using human intestinal epithelial cell lines (Int-407) by utilizing cell viability assay kit of Promega.

[5] = Cytotoxicity, Promega's cell viability assay kit; type: cell-based; conditions: human, Int-407 intestinal epithelial cells; summary in description; read-out: cytotoxic inhibitory concentration (IC50) against Int. 407
Experimental: as §3

various fungi = experiment: Fungal EC50 and selective index summary; type: cell-based; conditions: against various fungi; read-out: effective fungal concentration-50 (EC50)
Experimental: as §3

dermatophyte fungi = experiment: MIC summary for dermatophyte fungi; type: cell-based
Experimental: as §2, §4

Compound: CC1=CC[C@H]2C(C)(C)CCC[C@]2(C)[C@H]1CO [drimenol, (−)-drimenol]
- protection of worms from C. albicans mediated death (C. albicans): prevented C. albicans growth and protected worms from C. albicans mediated death
- MFC ([1]; all the fungi tested, 100 μg/ml for 48 h, read-out: minimum fungicidal concentration, MFC): 100 µg/mL (≈ 450 µM)
- effect of amines or YPD medium on bioactivity [1]: not affected
- cytotoxicity to worms [2]: less or no cytotoxicity to worms
- Selective Index (Int-407 IC50/fungal EC50) (Cryp. neoformans): 3.12
- EC50 (Cryp. neoformans): 16 µg/mL (≈ 72 µM)
- MIC (Cryp. neoformans): 30 µg/mL (≈ 135 µM)
- Selective Index (Int-407 IC50/fungal EC50) (C. albicans Day 185): 4.16
- EC50 (C. albicans Day 185): 12 µg/mL (≈ 54 µM)
- MIC (C. albicans Day 185): 25 µg/mL (≈ 112 µM)
- Selective Index (Int-407 IC50/fungal EC50) (T. equinum): 6.25 (6.25)
- EC50 (T. equinum): 8 µg/mL (≈ 36 µM)
- MIC (T. equinum): 5 µg/mL (≈ 22.5 µM)
- Selective Index (Int-407 IC50/fungal EC50) (C. albicans SC5314): 2.27
- EC50 (C. albicans SC5314): 22 µg/mL (≈ 98.9 µM)
- MIC (C. albicans SC5314): 40 µg/mL (≈ 180 µM)
- strains/genes depleted at the log ratio of >1.5 [3]: 34
- MIC [4]: 25 to 50 µg/mL (≈ 112 to 225 µM)
- CC50 [5]: ~50 µg/mL (≈ 225 µM)
- EC50 (various fungi): 5 to 30 µg/mL (≈ 22.5 to 135 µM)
- MIC (dermatophyte fungi): 5 to 15 µg/mL (≈ 22.5 to 67.5 µM)

Compound: C=C1CC[C@H]2C(C)(C)CCC[C@]2(C)[C@H]1CO [Albicanol, (+)-albicanol]
- effect of amines or YPD medium on bioactivity [1]: not affected
- cytotoxicity to worms [2]: less or no cytotoxicity to worms
- Selective Index (Int-407 IC50/fungal EC50) (Cryp. neoformans): 2.27
- EC50 (Cryp. neoformans): 22 µg/mL (≈ 98.9 µM)
- MIC (Cryp. neoformans): 40 µg/mL (≈ 180 µM)
- Selective Index (Int-407 IC50/fungal EC50) (C. albicans Day 185): 2.27
- EC50 (C. albicans Day 185): 22 µg/mL (≈ 98.9 µM)
- MIC (C. albicans Day 185): 40 µg/mL (≈ 180 µM)
- Selective Index (Int-407 IC50/fungal EC50) (T. equinum): 6.25 (6.25)
- EC50 (T. equinum): 8 µg/mL (≈ 36 µM)
- MIC (T. equinum): 15 µg/mL (≈ 67.5 µM)
- Selective Index (Int-407 IC50/fungal EC50) (C. albicans SC5314): 2
- EC50 (C. albicans SC5314): 25 µg/mL (≈ 112 µM)
- MIC (C. albicans SC5314): 50 µg/mL (≈ 225 µM)
- MIC [4]: 25 to 50 µg/mL (≈ 112 to 225 µM)
- CC50 [5]: ~50 µg/mL (≈ 225 µM)
- EC50 (various fungi): 5 to 30 µg/mL (≈ 22.5 to 135 µM)
- MIC (dermatophyte fungi): 5 to 15 µg/mL (≈ 22.5 to 67.5 µM)
